Our source for the efficacy and AC50 cell viability values is the supplement of paper PMC10290057.

Assay [1] has as its system HCT116. In words: efficacy (fitted maximal change in viability relative to DMSO control); higher = less cytotoxic (negative = loss of viability). The settings on record: 48 h.
Assay [2] has as its system HCT116. In words: AC50 cell viability (CellTiter-Glo); higher = less potent. The settings on record: 48 h. (Cellular ATP, detected with luciferase, serves as a proxy for viable cell number.)

Each structure is given as a SMILES string. Structures can show the parent of a compound that is named as a salt.
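Wherever AC50 cell viability (CellTiter-Glo) is given: HCT116 colorectal carcinoma cells screened at five concentrations per compound, luminescent viability scaled between DMSO wells and empty wells on each plate, curves fitted per compound.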
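Wherever efficacy (fitted maximal change in viability relative to DMSO control) is given: Luminescence-based viability readout, five doses per compound, normalized against on-plate DMSO and empty-well controls, followed by dose-response curve fitting for every drug.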

Turning to `CCC1CCCCN1C(=O)n1ncc(C(O)(c2ccccc2)c2ccccc2)n1` (stereo not given) [ML226], in the assay on HCT116 [1], the efficacy is -62.9%. The same compound showed an AC50 cell viability with HCT116 [2] of 11.8 µM.
`CN(C(=O)CNC(=O)/C=C/c1cccc(Cl)c1)C1CC[S+](=O)([O-])CC1` (stereo not given) [ML264]: the efficacy with HCT116 [1] was -92.4%. In addition, the AC50 cell viability in the assay with HCT116 [2] worked out at 0.742 µM.
The like results for `Cc1cnc(-c2ccccc2C(C)C)nc1NCc1ccc(-n2ccnn2)cc1` [ML323] were, in that order, -34.2% and 0.118 µM.
The like results for `CN(C)CCCNC(=O)c1ccc(-c2cc(O)c3ncccc3c2)cc1` [ML324] were, in that order, -86.4% and 14.8 µM.
For `O=C(NCCCNC(=O)c1cccnc1O)c1cc(-c2ccccc2)on1` [ML327], the efficacy in the assay with HCT116 [1] was -62.3%. The compound further returned an AC50 cell viability in the assay with HCT116 [2] of 8.33 µM.
In the same order, the values of `c1ccc(-c2ccc(CNc3nc(-c4ccccn4)nnc3-c3ccccc3)cc2)cc1` [ML-228] are -77% and 1.48 µM.
The like results for `Cc1ccc([S+](=O)([O-])Nc2cc(C(F)(F)F)ccc2C(=O)Nc2nc(-c3ccccc3)cs2)cc1` [ML-364] were, in that order, -87% and 4.17 µM.
In the same order, the values of `O=C(CCNC(=O)c1ccc(OC(F)(F)F)cc1)N[C@@H]1CCCc2ccccc21` [ML-390] are -57.7% and 0.742 µM.
As to `C[C@@H](NC(=O)c1ncnc(N)c1Cl)c1ncc(C(=O)Nc2cc(C(F)(F)F)c(Cl)cn2)s1` [MLN 2480], the efficacy with HCT116 [1] is -95.4%. The compound further returned an AC50 cell viability in the assay with HCT116 [2] of 13.2 µM.
In the same order, the values of `N[S+](=O)([O-])OC[C@@H]1C[C@@H](n2ccc3c(N[C@H]4CCc5ccccc54)ncnc32)C[C@@H]1O` [MLN-4924] are -65.7% and 0.235 µM.
The like results for `OC(=O)C1=CC=C(NC2=NC3=C(C\N=C(/C4=CC(=CC=C34)Cl)C5=C(F)C=CC=C5F)C=N2)C=C1` [MLN-8054] were, in that order, -38.3% and 0.332 µM.
In the same order, the values of `Cn1cc(-c2ccncc2)c(-c2ccc(OCc3ccc4ccccc4n3)cc2)n1` [MP-10] are -72.4% and 18.6 µM.
Turning to `COc1cc(N2CCC(O)CC2)ccc1Nc1cc(Nc2ccccc2[S+](=O)([O-])C(C)C)c2cc[nH]c2n1` [MPS1-IN-1], the efficacy in the assay on HCT116 [1] was -73%. For the same compound, the AC50 cell viability in the assay on HCT116 [2] worked out at 3.72 µM.
Turning to `COc1ccc([S+](=O)([O-])N2CCc3cccc(-c4ccncc4)c32)cc1` [MPT-0B098], in the assay on HCT116 [1], the efficacy is -61.1%. Moreover, the AC50 cell viability in the assay with HCT116 [2] was determined as 0.417 µM.
With `COc1cc(C(=O)NC(=N)Nc2ccc(C)c(NC(=O)c3ccc(-c4ccccc4)cc3)c2)cc(OC)c1OC` [MRT-83], the efficacy in the assay with HCT116 [1] is -47.2%. In the assay with HCT116 [2], this compound yielded an AC50 cell viability of 7.42 µM.
In the same order, the values of `COc1ccc([C@@H](O)[C@@H](C)Oc2ccc([C@H]3O[C@H](c4ccc(O[C@H](C)[C@H](O)c5ccc(OC)c(OC)c5)c(OC)c4)[C@H](C)[C@H]3C)cc2OC)cc1OC` [Manassantin A] are -81% and 0.372 µM.
The like results for `CNCCCC12CCC(c3ccccc31)c1ccccc12` [Maprotiline hydrochloride] were, in that order, -93.9% and 20.9 µM.
In the same order, the values of `CNC(=O)[C@@H](NC(=O)[C@H](CC(C)C)[C@H](O)C(=O)NO)C(C)(C)C` [Marimastat] are -54.3% and 20.9 µM.
For the compound `C[C@@]12OC(=O)[C@@]1(NC(=O)[C@@H]2CCCl)[C@@H](O)[C@H]\3CCC\C=C3` [Marizomib], the efficacy in the assay with HCT116 [1] is -92.6%. In the assay on HCT116 [2], this compound had an AC50 cell viability of 0.118 µM.
The like results for `CN(Cc1ccc(/C=C/C(=O)NO)cc1)CC12CC3CC(CC(C3)C1)C2` [Martinostat] were, in that order, -89.7% and 0.263 µM.
In the same order, the values of `Cc1ccc(NC(=O)c2ccc(CN3CCN(C)CC3)cc2)cc1Nc1nc(-c2cccnc2)cs1` [Masitinib] are -99.1% and 18.6 µM.
The like results for `C[C@H](Cc1ccc(O)c(O)c1)[C@@H](C)Cc1ccc(O)c(O)c1` [Masoprocol] were, in that order, -46.2% and 18.6 µM.
`Cc1cccc(CN2CCN(C(c3ccccc3)c3ccc(Cl)cc3)CC2)c1` (stereo not given) [Meclizine hydrochloride]: the efficacy in the assay on HCT116 [1] is -43.1%. The compound also had an AC50 cell viability in the assay on HCT116 [2] of 20.9 µM.
The like results for `CCN(CC)CCNC(=O)c1ccc2nc(-c3ccccc3)c(-c3ccc(CN4CCC(n5c(=O)[nH]c6ccccc65)CC4)cc3)nc2c1` [Merck-22-6] were, in that order, -99.8% and 8.33 µM.
Consider `C[N]1N=CC2=C1C=C(C(=C2)OC3=CC=C(NC(=O)\C4=C\C=C(\C)N(C4=O)C5=CC=C(F)C=C5)C=C3F)C6=C[NH]N=C6` [Merestinib], for which, in the assay on HCT116 [1], the efficacy was -41.2%. The compound also registered an AC50 cell viability in the assay with HCT116 [2] of 3.32 µM.
In the same order, the values of `CN(Cc1cnc2nc(N)nc(N)c2n1)c1ccc(C(=O)N[C@@H](CCC(=O)O)C(=O)O)cc1` [Methotrexate] are -84.4% and 0.118 µM.
For the compound `CN(C)C1=CC=C(C=C1)C(C2=CC=C(C=C2)N(C)C)=C/3\C=C/C(/C=C3)=[N+](C)C` [Methylrosaniline chloride], in the assay with HCT116 [1], the efficacy was -84.9%. Also, the AC50 cell viability in the assay on HCT116 [2] is 0.833 µM.
In the same order, the values of `COC(=O)/C=C/C(=O)N(O)CCCCNCc1ccc(COC(=O)Nc2cccc3ccccc23)cc1` [Methylstat] are -84.5% and 20.9 µM.
The like results for `CC[C@H](C)C(=O)O[C@H]1CC\C=C2\C=C/[C@H](C)[C@H](CC[C@@H]3C[C@@H](O)CC(=O)O3)[C@@H]12` [Mevastatin] were, in that order, -58.3% and 14.8 µM.
The like results for `Clc1ccc(COC(Cn2ccnc2)c2ccc(Cl)cc2Cl)c(Cl)c1` (stereo not given) [Miconazole nitrate] were, in that order, -97.9% and 20.9 µM.
As to `CO[C@@H]1[C@H](N(C)C(=O)c2ccccc2)C[C@H]2O[C@]1(C)n1c3ccccc3c3c4c(c5c6ccccc6n2c5c31)C(=O)NC4` [Midostaurin], the efficacy in the assay on HCT116 [1] was -62.7%. Besides, the AC50 cell viability in the assay on HCT116 [2] came to 1.48 µM.
Consider `CC1(C)CCC2(CC1)N[C@@H](C(=O)N[C@@H]1CC[C@@H](C(N)=O)OC1)[C@H](c1ccnc(Cl)c1F)[C@]21C(=O)Nc2cc(Cl)ccc21` [Milademetan], for which the efficacy with HCT116 [1] was -129%. This compound also came in with an AC50 cell viability in the assay on HCT116 [2] of 4.02 µM.
The like results for `CNC(=O)c1nn(C)c2c1C(C)(C)Cc1cnc(Nc3ccc(N4CCN(C)CC4)cc3)nc1-2` [Milciclib] were, in that order, -63.4% and 0.525 µM.
In the case of `Nc1ncccc1-c1nc2ccc(-c3ccccc3)nc2n1-c1ccc(C2(N)CCC2)cc1` [Miransertib], the efficacy with HCT116 [1] is -126%. In the assay with HCT116 [2], this compound had an AC50 cell viability of 14.8 µM.
The like results for `O=C1c2c(O)ccc(O)c2C(=O)c2c(NCCNCCO)ccc(NCCNCCO)c21` [Mitoxantrone] were, in that order, -91.4% and 1.18 µM.
